Data taken from the NIST ThermoML archive (doi:10.1021/je901020a).
Numbers after ± are expanded uncertainties.

Legend:
[1] = xn = mol fraction of the nth substance listed; conditions: 101 kPa, Liquid; for speed of sound: Pulse-echo method
[2] = refractive index (Na D-line) (dimensionless); xn = mol fraction of the nth substance listed; conditions: 101 kPa, Liquid, Standard Abbe refractometry

## Cc1ccc(C)cc1 [1,4-dimethylbenzene] + C1CCCCC1
[1]; 298.15 K, x2 = 0
  speed of sound: 1310 ± 2 m/s
  mass density: 856.6 ± 0.5 kg/m3
[1]; 298.15 K, x2 = 0.0459
  speed of sound: 1306 ± 2 m/s
  mass density: 852.9 ± 0.5 kg/m3
[1]; 298.15 K, x2 = 0.0952
  speed of sound: 1301 ± 2 m/s
  mass density: 848.6 ± 0.5 kg/m3
[1]; 298.15 K, x2 = 0.1948
  speed of sound: 1292 ± 2 m/s
  mass density: 840.1 ± 0.5 kg/m3
[1]; 298.15 K, x2 = 0.2874
  speed of sound: 1284 ± 2 m/s
  mass density: 832.3 ± 0.5 kg/m3
[1]; 298.15 K, x2 = 0.3929
  speed of sound: 1275 ± 2 m/s
  mass density: 823 ± 0.5 kg/m3
[1]; 298.15 K, x2 = 0.4964
  speed of sound: 1269 ± 2 m/s
  mass density: 814.1 ± 0.5 kg/m3
[1]; 298.15 K, x2 = 0.5938
  speed of sound: 1263 ± 2 m/s
  mass density: 805.7 ± 0.5 kg/m3
[1]; 298.15 K, x2 = 0.6949
  speed of sound: 1258 ± 2 m/s
  mass density: 797.2 ± 0.5 kg/m3
[1]; 298.15 K, x2 = 0.7906
  speed of sound: 1254 ± 2 m/s
  mass density: 789.5 ± 0.5 kg/m3
[1]; 298.15 K, x2 = 0.8927
  speed of sound: 1253 ± 2 m/s
  mass density: 781.5 ± 0.5 kg/m3
[1]; 298.15 K, x2 = 0.9493
  speed of sound: 1253 ± 2 m/s
  mass density: 777.5 ± 0.5 kg/m3
[1]; 313.15 K, x2 = 0
  speed of sound: 1248 ± 2 m/s
  mass density: 843.5 ± 0.5 kg/m3
[1]; 313.15 K, x2 = 0.0494
  speed of sound: 1243 ± 2 m/s
  mass density: 839.4 ± 0.5 kg/m3
[1]; 313.15 K, x2 = 0.1056
  speed of sound: 1238 ± 2 m/s
  mass density: 834.5 ± 0.5 kg/m3
[1]; 313.15 K, x2 = 0.2078
  speed of sound: 1228 ± 2 m/s
  mass density: 825.8 ± 0.5 kg/m3
[1]; 313.15 K, x2 = 0.3149
  speed of sound: 1218 ± 2 m/s
  mass density: 816.5 ± 0.5 kg/m3
[1]; 313.15 K, x2 = 0.4156
  speed of sound: 1209 ± 2 m/s
  mass density: 807.5 ± 0.5 kg/m3
[1]; 313.15 K, x2 = 0.5115
  speed of sound: 1202 ± 2 m/s
  mass density: 799.2 ± 0.5 kg/m3
[1]; 313.15 K, x2 = 0.6083
  speed of sound: 1195 ± 2 m/s
  mass density: 790.9 ± 0.5 kg/m3
[1]; 313.15 K, x2 = 0.7079
  speed of sound: 1189 ± 2 m/s
  mass density: 782.5 ± 0.5 kg/m3
[1]; 313.15 K, x2 = 0.8167
  speed of sound: 1184 ± 2 m/s
  mass density: 773.7 ± 0.5 kg/m3
[1]; 313.15 K, x2 = 0.9109
  speed of sound: 1182 ± 2 m/s
  mass density: 766.2 ± 0.5 kg/m3
[1]; 313.15 K, x2 = 0.9601
  speed of sound: 1181 ± 2 m/s
  mass density: 762.5 ± 0.5 kg/m3
[2]; 298.15 K, x2 = 0
  refractive index: 1.49312 ± 0.00069
[2]; 298.15 K, x2 = 0.0459
  refractive index: 1.49003 ± 0.0007
[2]; 298.15 K, x2 = 0.0952
  refractive index: 1.4866 ± 0.0007
[2]; 298.15 K, x2 = 0.1948
  refractive index: 1.47959 ± 0.0007
[2]; 298.15 K, x2 = 0.2874
  refractive index: 1.47324 ± 0.00069
[2]; 298.15 K, x2 = 0.3929
  refractive index: 1.4656 ± 0.00069
[2]; 298.15 K, x2 = 0.4964
  refractive index: 1.45843 ± 0.00069
[2]; 298.15 K, x2 = 0.5938
  refractive index: 1.45142 ± 0.00068
[2]; 298.15 K, x2 = 0.6949
  refractive index: 1.44417 ± 0.00068
[2]; 298.15 K, x2 = 0.7906
  refractive index: 1.43762 ± 0.00068
[2]; 298.15 K, x2 = 0.8927
  refractive index: 1.43057 ± 0.00068
[2]; 298.15 K, x2 = 0.9493
  refractive index: 1.42692 ± 0.00068
[2]; 313.15 K, x2 = 0
  refractive index: 1.48444 ± 0.00069
[2]; 313.15 K, x2 = 0.0494
  refractive index: 1.48145 ± 0.00068
[2]; 313.15 K, x2 = 0.1056
  refractive index: 1.47781 ± 0.00066
[2]; 313.15 K, x2 = 0.2078
  refractive index: 1.47072 ± 0.00064
[2]; 313.15 K, x2 = 0.3149
  refractive index: 1.46341 ± 0.00063
[2]; 313.15 K, x2 = 0.4156
  refractive index: 1.45628 ± 0.0006
[2]; 313.15 K, x2 = 0.5115
  refractive index: 1.44953 ± 0.0006
[2]; 313.15 K, x2 = 0.6083
  refractive index: 1.44272 ± 0.00062
[2]; 313.15 K, x2 = 0.7079
  refractive index: 1.43584 ± 0.00067
[2]; 313.15 K, x2 = 0.8167
  refractive index: 1.42845 ± 0.00061
[2]; 313.15 K, x2 = 0.9109
  refractive index: 1.42167 ± 0.00049
[2]; 313.15 K, x2 = 0.9601
  refractive index: 1.41809 ± 0.00045

## Cc1ccc(C)cc1 [1,4-dimethylbenzene] + C1CCCCCCC1
[1]; 298.15 K, x2 = 0
  speed of sound: 1310 ± 2 m/s
  mass density: 856.6 ± 0.5 kg/m3
[1]; 313.15 K, x2 = 0
  speed of sound: 1248 ± 2 m/s
  mass density: 843.5 ± 0.5 kg/m3
[2]; 298.15 K, x2 = 0
  refractive index: 1.49312 ± 0.00069
[2]; 313.15 K, x2 = 0
  refractive index: 1.48444 ± 0.00069

## Cc1ccc(C)cc1 [1,4-dimethylbenzene] + CC1CCCCC1
[1]; 298.15 K, x2 = 0
  speed of sound: 1310 ± 2 m/s
  mass density: 856.6 ± 0.5 kg/m3
[1]; 313.15 K, x2 = 0
  speed of sound: 1248 ± 2 m/s
  mass density: 843.5 ± 0.5 kg/m3
[2]; 298.15 K, x2 = 0
  refractive index: 1.49312 ± 0.001
[2]; 313.15 K, x2 = 0
  refractive index: 1.48444 ± 0.001

## C1CCCCC1 [cyclohexane] + Cc1cc(C)cc(C)c1
[1]; 298.15 K, x1 = 1
  speed of sound: 1255 ± 2 m/s
  mass density: 773.9 ± 0.5 kg/m3
[1]; 313.15 K, x1 = 1
  speed of sound: 1182 ± 2 m/s
  mass density: 759.6 ± 0.5 kg/m3
[2]; 298.15 K, x1 = 1
  refractive index: 1.4236 ± 0.00064
[2]; 313.15 K, x1 = 1
  refractive index: 1.41516 ± 0.00064

## C1CCCCC1 [cyclohexane] + Cc1ccc(C)cc1
[1]; 298.15 K, x1 = 1
  speed of sound: 1255 ± 2 m/s
  mass density: 773.9 ± 0.5 kg/m3
[1]; 313.15 K, x1 = 1
  speed of sound: 1182 ± 2 m/s
  mass density: 759.6 ± 0.5 kg/m3
[2]; 298.15 K, x1 = 1
  refractive index: 1.4236 ± 0.00064
[2]; 313.15 K, x1 = 1
  refractive index: 1.41516 ± 0.00064

## C1CCCCC1 [cyclohexane] + Cc1cccc(C)c1
[1]; 298.15 K, x1 = 1
  speed of sound: 1255 ± 2 m/s
  mass density: 773.9 ± 0.5 kg/m3
[1]; 313.15 K, x1 = 1
  speed of sound: 1182 ± 2 m/s
  mass density: 759.59 ± 0.5 kg/m3
[2]; 298.15 K, x1 = 1
  refractive index: 1.4236 ± 0.00064
[2]; 313.15 K, x1 = 1
  refractive index: 1.41516 ± 0.00064

## C1CCCCC1 [cyclohexane] + Cc1ccccc1C
[1]; 298.15 K, x1 = 1
  speed of sound: 1255 ± 2 m/s
  mass density: 773.9 ± 0.5 kg/m3
[1]; 313.15 K, x1 = 1
  speed of sound: 1182 ± 2 m/s
  mass density: 759.6 ± 0.5 kg/m3
[2]; 298.15 K, x1 = 1
  refractive index: 1.4236 ± 0.00064
[2]; 313.15 K, x1 = 1
  refractive index: 1.41516 ± 0.00064
